Results: patent publication US20030203899A1, “Drugs for incontinence” (priority 2000, published 2003)
Where a name gives a salt, the structure may show the parent alone.

System: strips of urinary guinea-pig bladder contracted with carbacol
Assay: Inhibition of bladder contraction: relaxation of guinea-pig urinary bladder strips contracted with carbacol, in vitro
Assay type: cell-based
Conditions: strips contracted with carbacol 10^−6 M, placebo = 100
Excerpt: The activity in the urinary incontinence of the compounds according to the present invention has been evaluated in an experimental model of inhibition of the bladder contraction.
The degree of the relaxation induced in the urinary bladder is a measure of the inhibitory action of the urinary incontinence of the drugs described in the present application.
Guinea-pigs of male sex having an average weight equal to 300-500 g were sacrificed and bled. The urinary bladder was removed and prepared for determining the myorelaxing activity in vitro, according to the method described by L. Nilvenbrant, Eur. J. Pharmacol. 327,195-207, 1997.
The obtained tissue strips were contracted with carbacol 10^−6 M in phisiological solution and the relaxation was determined in the presence of the compounds indicated in Table 1 at the concentrations mentioned therein. The 2-(acetyloxy) benzoic acid 6-(nitroxymethyl)-2-methylpyridyl ester hydrochloride was prepared according to Example 1 of patent application PCT/EP 00/01454 (NCX 4050).

Molecule	Bladder strip contraction, % of placebo (compound 3 × 10 − 5 M)	Bladder strip contraction, % of placebo (compound 10^−6 M)
CC(=O)Oc1ccccc1C(=O)Oc1ccc(CO[N+](=O)[O-])nc1C.Cl [NCX 4050, 2-(acetyloxy) benzoic acid 6-(nitroxymethyl)-2-methylpyridyl ester hydrochloride]	71%	
CCN(CC)CC#CCOC(=O)C(O)(c1ccccc1)C1CCCCC1 (centres unmarked) [Oxybutynin Hydrochloride (Comp), oxybutynin hydrochloride, reference compound]		30%
CCCc1nn(C)c2c(=O)[nH]c(-c3cc(S(=O)(=O)N4CCN(C)CC4)ccc3OCC)nc12 [Sildenafil Citrate, sildenafil citrate, reference compound]	52%	
oxybutynin nitrate salt		0%
sildenafil nitrate salt	31%	
